How the values were obtained:
HeLa cells = test: Cell growth test (MTT), HeLa; assay type: cell-based; settings: Homo sapiens, MTT test after 48 h, read-out: IC50 (concentration necessary to inhibit 50% of cell growth)
Description: (§1) The cell growth tests are carried out in transparent 96-well microplates (Greiner) after having seeded 100 μl/well of a cell solution having 2·10^5 cells/ml to 5·10^5 cells/ml (depending on the cell lines). After incubating for 24 h at 37° C. with 5% CO2, the culture medium is removed and replaced with solutions of the molecule to be tested at various concentrations. The cells are incubated with these molecules for an additional 48 h at 37° C. with 5% CO2. After elimination of the medium, the cells are washed with blank RPMI (Gibco, Invitrogen) then incubated with 3-(4,5-dimethylthiazol-2-yl)-2,5-diphenyltetrazolium bromide or MTT (0.5 mg/ml final concentration) for 4 h at 37° C. with 5% CO2. MTT (Sigma Aldrich) makes it possible to estimate the viability of the cells by measuring the activity of a mitochondrial enzyme. Indeed, in living cells, mitochondrial dehydrogenases are capable of cleaving the tetrazolium ring, thus leading to the formation of formazan crystals that are insoluble in an aqueous medium. These crystals are dissolved with the addition of a solubilizing solution (isopropanol, 10% Triton X100, 0.1 N HCl). After stirring, the absorbance is measured at 570 nm using the FLUOstar OPTIMA microplate reader. […]
(§2) The viability of the cells was evaluated using an MTT test after 48 h of exposure with various concentrations of molecules (from 100 μM to 0.001 μM). […]

MES-SA cells = test: Cell growth test (MTT), MES-SA; assay type: cell-based; settings: Homo sapiens, MTT test after 48 h, read-out: IC50 (concentration necessary to inhibit 50% of cell growth)
Description: as §1, §2

NCI-H460 cells = test: Cell growth test (MTT), NCI-H460; assay type: cell-based; settings: Homo sapiens; NCI-H460, MTT test after 48 h; read-out: IC50 (concentration necessary to inhibit 50% of cell growth)
Description: as §1, §2

786-O cells = test: Cell growth test (MTT), 786-O; assay type: cell-based; settings: Homo sapiens, 786-0, MTT test after 48 h, read-out: IC50 (concentration necessary to inhibit 50% of cell growth)
Description: as §1, §2

MES-SA DX5 cells = test: Cell growth test (MTT), MES-SA DX5; assay type: cell-based; settings: Homo sapiens; MES-SA DX5 (multi-drug resistant, P-glycoprotein), MTT test after 48 h; read-out: IC50 (concentration necessary to inhibit 50% of cell growth)
Description: as §1, §2

[1] = system: actin network of HeLa cells; test: Stability of the actin network to a depolymerization induced by latrunculin B; assay type: cell-based, Human; settings: HeLa cells, confocal microscope
Description: 7. a step of analysis of the effect of the compound to be tested on the actin network, via incubation of HeLa cells with the compound to be tested. […] When the actin network is stabilized, the latrunculin-induced depolymerization of the actin network is limited.
The cells are grown on glass coverslips and incubated as for the tubulin staining. After elimination of the medium, the cells are washed with warm PBS then fixed, by addition of a solution of PBS/3.7% formaldehyde for 30 minutes at 37° C. The cells are washed with PBS then permeabilized with a solution of PBS/0.2% Triton X100 for 15 minutes at room temperature. After another washing with PBS, the cells are incubated with a solution of PBS/1% BSA for 30 minutes at room temperature. The cells are then incubated with phalloidin (0.165 μM final concentration) labelled with Alexa Fluor® 488 (Molecular Probes, Invitrogen) for 20 minutes at room temperature. The cells are washed a final time with PBS then dehydrated with pure ethanol. Finally, the cells are fixed to slides using a Fluorsave™ mounting solution.
8) Test for the Action on the Actin Cytoskeleton: Protocol for Evaluating, in Cells, the Stability of the Actin Network to a Depolymerization Induced by Latrunculin B
3 days before the experiment, glass coverslips are deposited under sterile conditions in 24-well microplates. In each well, HeLa cells (15 000 cells per well) in the exponential growth phase are seeded in 500 μl of RPMI medium.
PBS (phosphate buffered saline, ref. P4417, Sigma), PBS/1% BSA (bovine serum albumin, Ref. A3059, Sigma), aliquots of 15 ml, stored at −20° C.; PBS/0.2% Triton X100 (Ref. T8787, Sigma); PBS/0.01% Tween® 20 (Ref. P9916, Sigma); PBS/0.3% BSA/0.02% NaN3 (Ref. for the NaN3: 6688, Merck), aliquots of 15 ml stored at −20° C. Phalloidin A488, (Ref. A12379, Invitrogen). L4: rabbit anti-detyrosinated-tubulin polyclonal antibody (cf. Fonrose et al., Cancer Res., […], 67:3371-3378). Anti-rabbit antibody coupled to Cyanine 3 (Ref. 111.165.144, Jackson Laboratories). […]

purified tubulin = test: In vitro assembly of purified tubulin; assay type: biochemical; settings: tubulin 1 mg/ml; Compound 1 at 25, 50, 100 μM
Description: FIG. 5 compares the effects of the Compound 1 of the invention with the effect of paclitaxel (Taxol®) on the assembly of the tubulin purified in vitro. Purified tubulin (1 mg/ml) is incubated in PEM buffer in the presence of GTP (1 mM), MgCl2 (5 mM), DAPI (10 μM) at 37° C. The effect of Compound 1 of the invention at various concentrations (×25 μM, ⊚ 50 μM and Δ 100 μM) is compared to that of paclitaxel (Taxol®) (▪) and of DMSO ( ? );
In order to know whether Compound 1 of the invention exerts its stabilizing effect via a direct action on tubulin, such as paclitaxel does, or by means an effector, its effect on the in vitro assembly of tubulin in microtubules has been analyzed. The first experiments were carried out on purified tubulin (1 mg/ml).

IC50 (HeLa cells) | IC50 (NCI-H460 cells) | IC50 (786-O cells) | SMILES | IC50 (MES-SA cells) | IC50 (MES-SA DX5 cells) | Protection of the actin network from depolymerization by latrunculin B [1] | Assembly of purified tubulin in vitro (purified tubulin)
3.05 µM | 1.52 µM | 3.34 µM | Cc1c2cc[nH]c(=O)c2c(C)c2c1[nH]c1ccc(OCc3ccccc3)cc12 [Compound 3, 9-benzyloxy-5,11-dimethyl-2H,6H-pyrido[4,3-b]carbazol-1-one] | 33.9 µM | 13.9 µM |  | 
 |  |  | CC(=O)O[C@H]1C(=O)[C@@]2(C)[C@H]([C@H](OC(=O)c3ccccc3)[C@]3(O)C[C@H](OC(=O)[C@H](O)[C@@H](NC(=O)c4ccccc4)c4ccccc4)C(C)=C1C3(C)C)[C@]1(OC(C)=O)CO[C@@H]1C[C@@H]2O [paclitaxel, reference compound] |  |  | Neither DMSO nor paclitaxel (Taxol®) are able to induce such a protective effect | can induce the assembly of tubulin

— patent publication US8604048B2, “Pyridocarbazole type compounds and applications thereof” (Centre National de la Recherche Scientifique, priority 2009, dated 2013)
